{"source": "paper PMC4949444", "about": "(Scientific Reports, 2016)", "key": {"[1]": {"tested_on": "N2a cells", "assay": "Reactive oxygen species production in N2a cells (CM-H2DCFDA)", "format": "cell-based", "conditions": "2 hours", "description": "(§1) Determination of ROS: N2a cells were seeded at 25x 10^3 cells/ml in 96-well plates and incubated with 0.25 ȝM 5-(and-6 )-chloro meth yl-2ƍ,7ƍ-dichlorodihydrofluorescein diacetate acet yl ester (C M-H 2 DCFDA) for 20 minutes at 37°C. Then, the cells were treated with either VCE-003 or VCE-003.2 for 2 hours. Cells exposed to pro-oxidant tert-Butyl h ydroperoxide (TBHP) were used as positive control. H 2 DCFDA oxidation was detected using an Incuc yteTM Live-Cell Imaging S ystem (Hertfordshire, UK).\nSupplementary Figure S1. Non-elect rophilic activity for VCE-003.2. (a) Reactive ox ygen species production. N2a cells were stained with CM-H2DCFDA and treated with VCE-003 or VCE-003.2 for 2 hours. Then, reactive ox ygen sp ecies were measured b y In cu c yt e TM Liv e-Cell Im agin g S ystem. Results are ex pressed as m ean of t otal integrated intensity (ROS positive cells) ± S.D. (b) Effect on Nrf2 transcriptional activity.\nVCE-003 treatment vers us Vehicle treated cells."}, "[2]": {"tested_on": "ERK, Akt and mTORC1 signaling pathways", "assay": "ERK, Akt and mTORC1 signalling in HiB5 cells (western blot)", "format": "cell-based", "description": "Figure 3 Prosurvival effect of VCE-003.2 in hippocampal neural progenitor HiB5 cells. (a,b) HiB5 cells in proliferative and differentiation conditions respectively were incubated with increasing concentrations of VCE-003.2 and cell viability was assessed using the MTT test after 48 h. (c) Cell viability and ERK1/2 phosphorylation status (activation) was determined in VCE-003.2-treated cells in the absence or presence of GW9662 (5 μM). (d) VCE-003.2 time-dependent regulation of the ERK, Akt and mTORC1 signaling pathways were determined by incubation with anti-phospho-ERK, phospho-Akt and phospho-S6 antibodies. Loading control was performed with α-tubulin antibody. Representative western blots and densitometry quantification of three independent experiments are shown. Values are expressed as means ± S.D. *p < 0.05; **p < 0.01 vs. Vehicle; ^#p < 0.05 vs. VCE-003.2.\nCleared cell extracts were subjected to SDS-PAGE, transferred to polyvinylidene difluoride membranes, and incubated with the correspondent primary antibodies against phospho-ERK1/2 (Thr202/Tyr204; Cell Signaling Technology, Danvers, MA, USA), phospho-S6 ribosomal protein (Ser235/236) (Cell Signaling Technology), phospho-Akt (Ser473) (Cell Signaling Technology) and α-tubulin (Sigma-Aldrich) overnight at 4 °C. After washing membranes, horseradish peroxidase-conjugated secondary antibody was added and detected by chemiluminescence system. Loading controls were performed with an anti-α-tubulin antibody. Densitometric quantification of the luminograms was performed using a GS-700 Imaging densitometer (Bio-Rad, Hercules, CA) and Image J software."}, "[3]": {"tested_on": "HiB5 cells", "assay": "Quinolinic acid-induced cell death and apoptosis in HiB5 cells", "format": "cell-based", "description": "(§2) Figure 4 In vitro neuroprotective action of VCE-003.2. (a) HiB5 cells were treated with quinolinic acid (QA; 2,5 mM) in the presence or the absence of VCE-003.2 (50 and 250 nM) and cell viability was determined after 24 h by the MTT assay. (b) QA-induced apoptosis measured by cleaved caspase 3 immunostaining (upper panel) of differentiating HiB5 cells was quantified in the presence or absence of VCE-003.2 (250 nM). Cell counts were referred to total cell nuclei counterstained with DAPI and c-caspase3^+ cell quantification is shown in the lower panel. […]. (d) Aggregation of mut-Htt was assessed by fluorescence microscopy in immortalized striatal STHdh transfected cells with a CFP-tagged expression vector of mutant huntingtin (mut-Htt) and counterstained with fluorescent phalloidin (upper panel). […]. Results are representative of three independent experiments. Values are expressed as means ± S. D. *p < 0.05 and ***p < 0.001 vs. Vehicle; ^#p < 0.05 ^##p < 0.01 vs. QA. […]\n(§3) The HiB5 hippocampal progenitor cell line (kindly provided by Prof. Z. Kokaia, Lund Stem Cell Center, Sweden) was grown as described[46] in DMEM supplemented with 2 mM glutamine, 1% penicillin/streptomycin and 10% (v/v) fetal calf serum (FCS; Lonza, Switzerland). […] Cell viability was determined after 24 h using the 3-[4,5-dimethylthiazol-2-yl]-2,5-diphenyltetrazolium bromide (MTT) tesresults int. […]"}, "[4]": {"tested_on": "STHdh^Q7/Q7", "assay": "Serum deprivation survival of STHdh Q7/Q7 striatal neuroblasts (MTT)", "format": "cell-based, mouse", "conditions": "STHdh Q7/Q7, 72 h", "description": "as §2, §3"}, "[5]": {"tested_on": "mutant huntingtin (mut-Htt) aggregates in striatal STHdh cells", "assay": "Mutant huntingtin aggregation in transfected STHdh cells", "format": "cell-based, mouse", "conditions": "STHdh cells transfected with exon 1 mut-htt, 94 polyglutamine repeats", "description": "as §2, §3"}, "[6]": {"assay": "Cysteamine recovery assay (thiol trapping)", "description": "cysteamine to form polar and not extractable adducts.\nas §1\nNrf2 transcriptional assay: To study Nrf2 transcriptional activity N2a cells were seeded (105/ml) in 24-well plates and transientl y transfected with the plasmid NQO1-ARE-Luc using Roti©-Fect following the manufacturer’s instructions (Carl Roth, Karlsruhe, German y). After 24 hours, cells were incubated wi th the compounds at the concentrations indicated during 6 hours and the luciferase activit y was determined using an Autolumat LB 953 (EG&G Berthold, Bad Wildbad, Germany). Protein content was determined b y the Bradford method to calculate R LU/Pg of protein and the results were expressed as a fold induction over untreated cells."}}, "data": [{"smiles": "CCCCCC1=C(NCC)C(=O)C(C/C=C(\\C)CCC=C(C)C)=C(O)C1=O", "note": "[VCE-003.2]", "values": [{"measurement": "induction of reactive oxygen species (ROS)", "setting": "[1]", "result": "none of these bioactivities were induced"}, {"measurement": "ERK phosphorylation", "setting": "[2]", "result": "induction of extracellular signal-regulated kinase (ERK) phosphorylation"}, {"measurement": "ERK phosphorylation in presence of GW9662", "setting": "[2]; + GW9662 5 μM", "result": "abolished in the presence of GW9662"}, {"measurement": "activation of Akt, time course", "setting": "[2]; phospho-Akt", "result": "activated at a higher extent and shortly after VCE-003.2 incubation and lasted until 60 min after incubation"}, {"measurement": "activation of ERK and mTORC1 signaling, time course", "setting": "[2]; phospho-ERK and phospho-S6", "result": "transient activation of ERK and mTORC1 signaling pathways between 15 and 30 min after stimulation"}, {"measurement": "QA-induced NP cell death", "setting": "[3]; HiB5, QA 2,5 mM, VCE-003.2 50 and 250 nM, 24 h MTT", "result": "fully prevented"}, {"measurement": "QA-induced apoptosis (cleaved caspase 3)", "setting": "[3]; differentiating HiB5, VCE-003.2 250 nM", "result": "significantly inhibited"}, {"measurement": "neuronal viability after serum deprivation", "setting": "[4]", "result": "improved"}, {"measurement": "cells with mut-Htt aggregates", "setting": "[5]", "result": "reduced the number of cells with aggregates"}, {"measurement": "recovery after treatment with cysteamine (thiol-trapping reactivity)", "setting": "[6]", "result": "recovered unscathed"}]}]}
